The source of these data is patent US20220267268A1, “NEW TRICYCLIC 5-HT2 ANTAGONISTS” (Anamar AB, priority 2019, published 2022).

Counter-ions that a name gives are not always drawn. Marks after values point to notes of the source that are not given here.

In experiment [1] the target is T1, 5-HT2B receptor (Homo sapiens, UniProt P41595).
T1 construct: host or cells: CHO-K1
As to the kind of experiment: 5-HT2B receptor agonism, IP-1 accumulation in CHO-K1 cells without prior 5-HT stimulation. It is filed as cell-based. To be noted: % of IP-1 accumulation induced by 5-HT (1 uM); for 5-HT2B receptor agonism (% of positive control) 1 nM: 1 nM compound; for 5-HT2B receptor agonism (% of positive control) 10 nM: 10 nM compound; for 5-HT2B receptor agonism (% of positive control) 100 nM: 100 nM compound; for 5-HT2B receptor agonism (% of positive control) 1000 nM: 1000 nM compound. The method, then:
(§1) 5-HT2B receptor antagonism (performed at Eurofins Panlabs Taiwan, Ltd.) was determined in CHO-K1 cells expressing human receptor protein as inhibition of 5-HT (5 nM) stimulated IP-1 accumulation measured by HTRF quantitation. SB 206553 was used as a standard reference compound. The antagonistic response is expressed as % inhibition of the 5-HT induced effect, see Table 2.
5-HT2B receptor agonism (performed at Eurofins Panlabs Taiwan, Ltd.) was determined in the same model as described above in Example 50 without prior stimulation with 5-HT. The agonistic response is expressed as % of the IP-1 accumulation induced by 5-HT (1 uM) stimulation, see Table 3.

Experiment [2] deals with T1, 5-HT2B receptor. As to the kind of experiment: 5-HT2B receptor binding, ligand displacement assay with 3H-LSD radioligand. To be noted: human receptor in CHO-K1; for inhibition at 0.001 µM: 1 nM compound; for inhibition at 0.01 µM: 10 nM compound; for inhibition at 0.1 µM: 100 nM compound. The method, then:
5-HT2B receptor binding (performed at Eurofins Panlabs Taiwan, Ltd.) to human receptor protein expressed in CHO-K1 cells was determined in a ligand displacement assay using ^3H-lysergic acid diethylamide (LSD) as radioligand and ketanserine as a standard reference compound, or alternatively*, with ^3H-mesulergine and SB 206553 as reference. Data is presented as % displacement of radioligand at indicated compound concentrations, see Table 1.

Experiment [3] addresses T1, 5-HT2B receptor. Kind of experiment: 5-HT2B receptor antagonism, inhibition of 5-HT stimulated IP-1 accumulation (HTRF) in CHO-K1 cells. It is filed as cell-based. The following applies: 5-HT (5 nM) stimulated IP-1 accumulation; for inhibition at 0.001 µM: 1 nM compound; for inhibition at 0.01 µM: 10 nM compound; for inhibition at 0.1 µM: 100 nM compound; for inhibition at 1 µM: 1000 nM compound. The method, then:
as §1
For orientation: Time-resolved FRET reads energy transfer from a long-lived donor to a nearby acceptor.

Experiment [4] has as its system bleomycin-induced dermal fibrosis. As to the kind of experiment: Anti-fibrotic effects in bleomycin-induced dermal fibrosis in mice. The format is in vivo, female DBA/2 mice. The method, then: Skin fibrosis was induced in female DBA/2 mice by subcutaneous injections of bleomycin (2.5 mg/kg) every other day for three or six weeks.
For preventive treatment, mice were challenged with bleomycin for three weeks and treatment by oral gavage was established simultaneously. For therapeutic treatment, fibrosis was first induced by injections of bleomycin for three weeks in the absence of treatment. Thereafter, treatment by oral gavage was initiated, while injections of bleomycin were continued. The outcome was analyzed three or six weeks after the first injection of bleomycin for preventive and therapeutic treatment, respectively. Mice injected with 0.9% NaCl, the vehicle of bleomycin, served as non-fibrotic controls and mice treated with ddH2O (the vehicle for test compound) by oral gavage served as negative controls.
Groups 1-8 of n=8 Female DBA/2 Mice: Preventive dosing 3 weeks in total 1. 0.9% NaCl (injection) and ddH2O (orally) week 1-3. 2. Bleomycin (injection) and ddH2O (orally) week 1-3. 3. Bleomycin (injection) and test compound (10 mg/kg, qd, orally) week 1-3. Therapeutic dosing 6 weeks in total 4. 0.9% NaCl (injection) week 1-6 and ddH2O (orally) week 4-6. 5. Bleomycin (injection) week 1-3, 0.9% NaCl (injection) week 4-6, and ddH2O (orally) week 4-6. 6. Bleomycin (injection) week 1-6 and ddH2O (orally) week 4-6. 7. Bleomycin (injection) week 1-6 and test compound (1 mg/kg, qd, orally) week 4-6. 8. Bleomycin (injection) week 1-6 and test compound (10 mg/kg, qd, orally) week 4-6.
Defined areas of the skin of the upper back were excised, subsequently fixed in 4% formalin for 6 h and embedded in paraffin. Skin sections were cut and stained with hematoxylin/eosin. The dermal thickness (measured as distance between the epidermal-dermal border to the dermal-subcutaneous border in arbitrary units) was quantified in 4 different sections from different sites with 2 measurements per section. The analysis was performed in a blinded manner.
Myofibroblasts are characterized by the expression of α-smooth muscle actin (αSMA). Fibroblasts positive for αSMA were detected in paraffin-embedded slides from the upper back by incubation with monoclonal anti-αSMA antibodies (clone 1A4, Sigma-Aldrich, Steinheim, Germany). The expression was visualized with horseradish peroxidase labeled secondary antibodies and 3,3-diaminobenzidine tetrahydrochloride (DAB) (Sigma-Aldrich). Monoclonal mouse IgG antibodies (Calbiochem, San Diego, Calif., USA) were used for controls. The analysis was performed by a blinded reviewer evaluating the myofibroblasts in four sections per sample.
The amount of collagen protein (ug/mL) in skin samples was determined via hydroxyproline assay. After digestion of full skin thickness punch biopsies (Ø 3 mm) derived from the upper back in 6 M HCl for three hours at 120° C., the pH of the samples was adjusted to 6 with 6 M NaOH. Afterwards, 0.06 M chloramine T was added to each sample and incubated for 20 m at room temperature. Next, 3.15 M perchloric acid and 20% p-dimethylaminobenzaldehyde were added and samples were incubated for additional 20 min at 60° C. The absorbance was determined at 557 nm with a Spectra MAX 190 microplate spectrophotometer using a standard curve generated with purified type I collagen (Sigma-Aldrich).
All data are presented as group mean values (±SEM), and differences between the groups were tested for their statistical significance by Mann-Whitney U non-parametric test for non-related samples. P-values less than 0.05 were considered significant.

Where [5] appears, read: Preventive dosing, Group 3: 10 mg/kg qd orally week 1-3, mean (SEM), p < 0.001 vs group 2.
[6] abbreviates: Therapeutic dosing, Group 7: 1 mg/kg qd orally week 4-6, mean (SEM).
The mark [7] stands for this setting: Therapeutic dosing, Group 8: 10 mg/kg qd orally week 4-6, mean (SEM).
The mark [8] stands for this setting: preventive and therapeutic treatment, compared to vehicle-treated, bleomycin-challenged mice.

T1 sequence (P41595 whole entry): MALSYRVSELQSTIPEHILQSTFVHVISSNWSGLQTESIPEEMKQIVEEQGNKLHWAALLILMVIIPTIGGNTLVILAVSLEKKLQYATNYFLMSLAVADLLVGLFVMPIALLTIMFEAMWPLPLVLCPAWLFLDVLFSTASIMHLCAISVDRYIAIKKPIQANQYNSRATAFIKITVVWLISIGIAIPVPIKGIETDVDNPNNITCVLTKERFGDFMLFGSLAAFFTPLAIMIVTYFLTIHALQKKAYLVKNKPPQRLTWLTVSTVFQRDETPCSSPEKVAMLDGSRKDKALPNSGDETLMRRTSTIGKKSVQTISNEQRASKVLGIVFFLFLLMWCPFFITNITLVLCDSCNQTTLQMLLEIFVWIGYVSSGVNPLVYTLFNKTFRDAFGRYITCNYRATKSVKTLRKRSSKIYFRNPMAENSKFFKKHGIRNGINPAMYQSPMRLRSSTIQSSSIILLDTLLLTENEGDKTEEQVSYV

What is called inhibition is the drop in the measured response relative to a control, in per cent. Consider `CC1CN(C(=N)N)c2ccc3c(F)cccc3c21` (centres unmarked) [Example 33, 6-Fluoro-1-methyl-1,2-dihydro-3H-benzo[e]indole-3-carboximidamide 2,2,2-trifluoroacetic acid salt], for which, in experiment [1], the “5-HT2B receptor agonism (% of positive control) 1 nM” value was −1%, the “5-HT2B receptor agonism (% of positive control) 10 nM” value amounted to 4%, the “5-HT2B receptor agonism (% of positive control) 100 nM” value was determined as 26% and the “5-HT2B receptor agonism (% of positive control) 1000 nM” value is reported as −1%. Besides, in experiment [2], the inhibition at 0.001 µM was 28%, the inhibition at 0.01 µM came out at 82% and the inhibition at 0.1 µM turned out to be 101%. In addition, in experiment [3], the inhibition at 0.001 µM is 29%, the inhibition at 0.01 µM was found to be 81%, the inhibition at 0.1 µM was determined as 99% and the inhibition at 1 µM came to 100%.
`CC1CN(C(=N)N)c2ccc3ccccc3c21.Cl` (centres unmarked) [Example 3, 1-Methyl-1,2-dihydro-3H-benzo[e]indole-3-carboximidamide hydrochloride]: in experiment [1], the “5-HT2B receptor agonism (% of positive control) 1 nM” value is on record as −3%, the “5-HT2B receptor agonism (% of positive control) 10 nM” value is on record as 0% and the “5-HT2B receptor agonism (% of positive control) 100 nM” value was −3%. Moreover, in experiment [2], the inhibition at 0.01 µM came to 63% and the inhibition at 0.1 µM came out at 90%. In addition, in experiment [3], the inhibition at 0.001 µM is 2%, the inhibition at 0.01 µM turned out to be 50% and the inhibition at 0.1 µM came out at 100%. Besides, in experiment [4] (setting [5]), the “Dermal thickness (arbitrary units)” value is reported as 3.52 (0.05) *** arbitrary units, the “Hydroxyproline (ug/mL)” value is given as 3.44 (0.11) *** ug/mL and the Myofibroblast counts is reported as 1.31 (0.06) ***. Besides, in experiment [4] (setting [6]), the “Dermal thickness (arbitrary units)” value was 3.96 (0.06) ^++### arbitrary units, the “Hydroxyproline (ug/mL)” value is 3.85 (0.12) ^## ug/mL and the Myofibroblast counts is given as 1.72 (0.07) ^+###. Moreover, in experiment [4] (setting [7]), the “Dermal thickness (arbitrary units)” value is given as 3.56 (0.04) ^+++### arbitrary units, the “Hydroxyproline (ug/mL)” value is recorded as 3.58 (0.09) ^++### ug/mL and the Myofibroblast counts is 1.41 (0.07) ^++###. For the same molecule, in experiment [4] (setting [8]), the Myofibroblast counts entry is given as “significantly reduced”, the hydroxyproline content result is on record as “significantly reduced” and the hypodermal thickening entry is given as “significantly reduced”. Also, the “antifibrotic effect, 10 mg/kg/qd compared to 1 mg/kg/qd” value in experiment [4] (therapeutic regimen) is “more potent antifibrotic effect”.
Regarding `CC1CN(C(=N)N)c2ccc3c(Cl)cccc3c21.Cl` (centres unmarked) [Example 11, 6-Chloro-1-methyl-1,2-dihydro-3H-benzo[e]indole-3-carboximidamide hydrochloride], in experiment [1], the “5-HT2B receptor agonism (% of positive control) 1 nM” value was 1%, the “5-HT2B receptor agonism (% of positive control) 10 nM” value was found to be 5%, the “5-HT2B receptor agonism (% of positive control) 100 nM” value is −2% and the “5-HT2B receptor agonism (% of positive control) 1000 nM” value is given as 1%. Also, in experiment [2], the inhibition at 0.001 µM amounted to 63%, the inhibition at 0.01 µM turned out to be 97% and the inhibition at 0.1 µM worked out at 103%. For the same molecule, in experiment [3], the inhibition at 0.001 µM is 53%, the inhibition at 0.01 µM came to 89%, the inhibition at 0.1 µM turned out to be 99% and the inhibition at 1 µM stood at 96%.
As to `CC1CN(C(=N)N)c2ccc3c(Br)cccc3c21.Cl` (centres unmarked) [Example 2, 6-Bromo-1-methyl-1,2-dihydro-3H-benzo[e]indole-3-carboximidamide hydrochloride], in experiment [1], the “5-HT2B receptor agonism (% of positive control) 1 nM” value is reported as −3%, the “5-HT2B receptor agonism (% of positive control) 10 nM” value is recorded as −5%, the “5-HT2B receptor agonism (% of positive control) 100 nM” value was −3% and the “5-HT2B receptor agonism (% of positive control) 1000 nM” value is listed as −4%. In experiment [2], the inhibition at 0.001 µM is 72%, the inhibition at 0.01 µM stood at 96% and the inhibition at 0.1 µM is 98%. In addition, in experiment [3], the inhibition at 0.001 µM worked out at 56%, the inhibition at 0.01 µM is 91%, the inhibition at 0.1 µM stood at 95% and the inhibition at 1 µM turned out to be 96%.
For `CC1CN(C(=N)N)c2ccc3cc(F)ccc3c21.Cl` (centres unmarked) [Example 1, 7-Fluoro-1-methyl-1,2-dihydro-3H-benzo[e]indole-3-carboximidamide hydrochloride], in experiment [1], the “5-HT2B receptor agonism (% of positive control) 1 nM” value is −1%, the “5-HT2B receptor agonism (% of positive control) 10 nM” value turned out to be 2%, the “5-HT2B receptor agonism (% of positive control) 100 nM” value is reported as 7% and the “5-HT2B receptor agonism (% of positive control) 1000 nM” value amounted to 0%. Also, in experiment [2], the inhibition at 0.001 µM was 9%, the inhibition at 0.01 µM worked out at 49% and the inhibition at 0.1 µM was determined as 88%. Moreover, in experiment [3], the inhibition at 0.001 µM is 2%, the inhibition at 0.01 µM was determined as 14%, the inhibition at 0.1 µM amounted to 80% and the inhibition at 1 µM worked out at 97%.
